What was measured:
[1] = biological target: Thymidine phosphorylase (Escherichia coli K-12) (UniProt P07650); assay: Inhibition of Escherichia coli thymidine phosphorylase assessed as ratio of phosphorolysis in presence of drug to control at 10 umol/l
[2] = biological target: T1, Thymidine phosphorylase (Rattus norvegicus) (UniProt Q5FVR2); assay: Inhibition of Sprague-Dawley rat lymphoma thymidine phosphorylase assessed as ratio of phosphorolysis in presence of drug to control at 10 umol/l
T1 sequence (whole entry): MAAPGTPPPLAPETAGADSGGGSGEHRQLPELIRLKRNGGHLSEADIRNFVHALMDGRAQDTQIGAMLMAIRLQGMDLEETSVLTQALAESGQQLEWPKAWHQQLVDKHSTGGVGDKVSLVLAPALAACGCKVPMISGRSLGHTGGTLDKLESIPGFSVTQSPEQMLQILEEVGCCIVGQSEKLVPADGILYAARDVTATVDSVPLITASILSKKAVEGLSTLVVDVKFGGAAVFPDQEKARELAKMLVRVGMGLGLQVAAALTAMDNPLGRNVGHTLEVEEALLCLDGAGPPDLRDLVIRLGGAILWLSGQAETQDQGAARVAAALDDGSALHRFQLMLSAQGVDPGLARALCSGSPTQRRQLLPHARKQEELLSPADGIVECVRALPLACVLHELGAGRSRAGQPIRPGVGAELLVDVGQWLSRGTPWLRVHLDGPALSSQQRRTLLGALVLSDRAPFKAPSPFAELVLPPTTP

Chain of Thymidine phosphorylase (Escherichia coli K-12) (P07650 whole entry, looked up): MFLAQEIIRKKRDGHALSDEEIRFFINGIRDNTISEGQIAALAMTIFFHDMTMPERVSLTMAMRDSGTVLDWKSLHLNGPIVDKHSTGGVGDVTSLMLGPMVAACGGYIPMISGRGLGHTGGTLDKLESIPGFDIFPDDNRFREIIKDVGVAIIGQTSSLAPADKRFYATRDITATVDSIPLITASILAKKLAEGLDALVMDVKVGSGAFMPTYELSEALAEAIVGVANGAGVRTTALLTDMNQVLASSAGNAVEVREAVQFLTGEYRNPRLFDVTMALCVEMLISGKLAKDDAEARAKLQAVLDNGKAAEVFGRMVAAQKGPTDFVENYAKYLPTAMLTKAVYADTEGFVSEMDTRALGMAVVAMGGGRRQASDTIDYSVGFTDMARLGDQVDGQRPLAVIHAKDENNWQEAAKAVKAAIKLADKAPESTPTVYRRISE

SMILES: Cc1c[nH]c(=O)n(C[C@@H](CF)OCP(=O)(O)O)c1=O
- Ratio [1]: 0.93

SMILES: Cc1c[nH]c(=O)n(C[C@H](CF)OCP(=O)(O)O)c1=O
- Ratio [2]: 0.75
- Ratio [1]: 0.98

SMILES: Cc1c[nH]c(=O)n(C[C@@H](CO)OCP(=O)(O)O)c1=O
- Ratio [1]: 0.94

SMILES: Cc1c[nH]c(=O)n(C[C@H](CO)OCP(=O)(O)O)c1=O
- Ratio [2]: 0.78
- Ratio [1]: 1.01

SMILES: Cc1c[nH]c(=O)n(CCOCP(=O)(O)O)c1=O
- Ratio [2]: 1.44
- Ratio [1]: 1.07

Source: ChEMBL document CHEMBL1143866, “Syntheses of N3-substituted thymine acyclic nucleoside phosphonates and a comparison of their inhibitory effect towards thymidine phosphorylase” (Bioorg Med Chem Lett, 2008)
